# Data taken from patent publication US9296745B2, “Diacylglycerol acyltransferase 2 inhibitors” (Pfizer Inc., priority 2012, dated 2016).
# Read-outs that look alike come from different tables or passages of the source.
# Target: Human DGAT2 (hDGAT2) (Homo sapiens (Human), UniProt Q96PD7)
# Test: In vitro DGAT2 assay, IC50 determination with hDGAT2 membrane fraction
# Format: biochemical
# Conditions: read-out: DGAT2 IC50
# Method in brief: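 CHAPS-solubilized membrane fraction of FLAG-tagged hDGAT2 from baculovirus-infected SF9 cells (0.01 mg/mL) in 100 mM Hepes-NaOH pH 7.4, 20 mM MgCl2, 200 nM methyl arachidonyl fluorophosphonate; compounds pre-incubated 20 min with 0.04% BSA. Reaction 40 min at room temperature, stopped with H3PO4. [^14C]tridecanoylglycerol in organic phase counted; 11-point geometric mean IC50.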
# [1] = geometric mean, background for complete inhibition of DGAT2 obtained with 50 μM (1R,2R)-2-({3′-Fluoro-4′-[(6-fluoro-1,3-benzothiazol-2-yl)amino]-1,1′-biphenyl-4-yl}carbonyl)cyclopentanecarboxylic acid
# Human DGAT2 (hDGAT2), sequence (Q96PD7 whole entry): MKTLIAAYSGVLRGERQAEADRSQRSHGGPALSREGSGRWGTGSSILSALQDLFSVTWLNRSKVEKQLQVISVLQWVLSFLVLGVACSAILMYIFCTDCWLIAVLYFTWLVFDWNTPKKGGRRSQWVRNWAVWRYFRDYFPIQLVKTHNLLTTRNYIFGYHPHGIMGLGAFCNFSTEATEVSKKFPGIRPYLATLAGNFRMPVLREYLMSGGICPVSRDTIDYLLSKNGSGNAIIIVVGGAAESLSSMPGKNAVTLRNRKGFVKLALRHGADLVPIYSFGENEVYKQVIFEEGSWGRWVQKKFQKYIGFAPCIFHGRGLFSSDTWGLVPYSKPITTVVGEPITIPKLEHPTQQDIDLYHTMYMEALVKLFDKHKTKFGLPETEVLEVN
SMILES,IC50 [1] [nM],IC50 [nM]
"O=C([C@@H]1CCCN(c2cnc3nc(-c4ccnc(C5CC5)n4)[nH]c3n2)C1)N1CCCC1 [Example 138, (R)-(1-(2-(2-Cyclopropylpyrimidin-4-yl)-1H-imidazo[4,5-b]pyrazin-6-yl)piperidin-3-yl)(pyrrolidin-1-yl)methanone]",71.6,
"O=C([C@@H]1CCCN(c2ccc3nc(-c4cccc(C5(O)CC5)n4)[nH]c3n2)C1)N1CCCC1 [Example 139, (R)-(1-(2-(6-(1-Hydroxycyclopropyl)pyridin-2-yl)-3H-imidazo[4,5-b]pyridin-5-yl)piperidin-3-yl)(pyrrolidin-1-yl)methanone]",62.3,
"CC(C)(O)c1csc(-c2nc3ccc(N4CCC[C@@H](C(=O)N5CCCC5)C4)nc3[nH]2)n1 [Example 140, (R)-(1-(2-(4-(2-Hydroxypropan-2-yl)thiazol-2-yl)-3H-imidazo[4,5-b]pyridin-5-yl)piperidin-3-yl)(pyrrolidin-1-yl)methanone]",207,
"O=C([C@H]1CN(c2ccc3nc(-c4cccc(C5CC5)n4)[nH]c3n2)CCO1)N1CCCC1 [Example 142, (R)-(4-(2-(6-Cyclopropylpyridin-2-yl)-3H-imidazo[4,5-b]pyridin-5-yl)morpholin-2-yl)(pyrrolidin-1-yl)methanone]",24.8,
"O=C([C@H]1CN(c2ccc3nc(-c4cccc(C(F)(F)F)n4)[nH]c3n2)CCO1)N1CCCC1 [Example 143, (R)-Pyrrolidin-1-yl(4-(2-(6-(trifluoromethyl)pyridin-2-yl)-3H-imidazo[4,5-b]pyridin-5-yl)morpholin-2-yl)methanone]",511,
"FC(F)Oc1cccc(-c2nc3ccc(N4CCO[C@H](c5ccccn5)C4)nc3[nH]2)c1 [Example 145, (S)-4-(2-(3-(difluoromethoxy)phenyl)-3H-imidazo[4,5-b]pyridin-5-yl)-2-(pyridin-2-yl)morpholine]",411,
"O=C([C@H]1CN(c2ccc3nc(-c4cncc(C5CC5)n4)[nH]c3n2)CCO1)N1CCCC1 [Example 146, (R)-(4-(2-(6-Cyclopropylpyrazin-2-yl)-3H-imidazo[4,5-b]pyridin-5-yl)morpholin-2-yl)(pyrrolidin-1-yl)methanone]",401,
"O=C([C@@H]1CCCN(c2ccc3nc(-c4ccnc(C5CCC5)n4)[nH]c3n2)C1)N1CCCC1 [Example 147, (R)-(1-(2-(2-Cyclobutylpyrimidin-4-yl)-3H-imidazo[4,5-b]pyridin-5-yl)piperidin-3-yl)(pyrrolidin-1-yl)methanone]",9.21,
"O=C([C@@H]1CCCN(c2ccc3nc(-c4nccc(C5CC5)n4)[nH]c3n2)C1)N1CCOCC1 [Example 149, (R)-(1-(2-(4-Cyclopropylpyrimidin-2-yl)-3H-imidazo[4,5-b]pyridin-5-yl)piperidin-3-yl)(morpholino)methanone]",766,
"CN(C)C(=O)[C@@H]1CCCN(c2ccc3nc(-c4cccc(C5CC5)n4)[nH]c3n2)C1 [Example 150, (R)-1-(2-(6-Cyclopropylpyridin-2-yl)-3H-imidazo[4,5-b]pyridin-5-yl)-N,N-dimethylpiperidine-3-carboxamide]",47.3,
"Clc1cccc(-c2nc3ccc(N4CCO[C@@H](c5ccccn5)C4)nc3[nH]2)c1 [Example 152, (R)-4-(2-(3-chlorophenyl)-3H-imidazo[4,5-b]pyridin-5-yl)-2-(pyridin-2-yl)morpholine]",,285
"O=C([C@@H]1CCCN(c2ccc3nc(-c4cccc(C5CC5)n4)[nH]c3n2)C1)N1CCOCC1 [Example 153, (R)-(1-(2-(6-Cyclopropylpyridin-2-yl)-3H-imidazo[4,5-b]pyridin-5-yl)piperidin-3-yl)(morpholino)methanone]",,48.1
"O=C([C@@H]1CCCN(c2ccc3nc(-c4cccc(Cl)c4)[nH]c3n2)C1)N1CCOCC1 [Example 154, (R)-(1-(2-(3-Chlorophenyl)-3H-imidazo[4,5-b]pyridin-5-yl)piperidin-3-yl)(morpholino)methanone]",,40.5
"O=C([C@@H]1CCCN(c2ccc3nc(-c4cccc(OC(F)F)c4)[nH]c3n2)C1)N1CCOCC1 [Example 155, (R)-(1-(2-(3-(Difluoromethoxy)phenyl)-3H-imidazo[4,5-b]pyridin-5-yl)piperidin-3-yl)(morpholino)methanone]",,35.6
"N#CC1(c2cccc(-c3nc4ccc(N5CCC[C@@H](C(=O)N6CCCC6)C5)nc4[nH]3)n2)CC1 [Example 156, (R)-1-(6-(5-(3-(Pyrrolidine-1-carbonyl)piperidin-1-yl)-1H-imidazo[4,5-b]pyridin-2-yl)pyridin-2-yl)cyclopropanecarbonitrile]",275,
"CC(c1ccccc1)c1nc2ccc(N3CCC[C@@H](C(=O)N4CCCC4)C3)nc2[nH]1 (stereo partly drawn) [Example 157, (R)-(1-(2-(1-Phenylethyl)-3H-imidazo[4,5-b]pyridin-5-yl)piperidin-3-yl)(pyrrolidin-1-yl)methanone]",211,

SMILES,IC50 [1] [nM],IC50 [nM]
"O=C([C@@H]1CCCN(c2ccc3nc(-c4cccc(C5CC5)n4)[nH]c3n2)C1)N1CC=CC1 [Example 158, (R)-(1-(2-(6-Cyclopropylpyridin-2-yl)-3H-imidazo[4,5-b]pyridin-5-yl)piperidin-3-yl)(2,5-dihydro-1H-pyrrol-1-yl)methanone]",3.58,
"O=C([C@@H]1CCCN(c2ncc3nc(-c4ccnc(C5CC5)n4)[nH]c3n2)C1)N1CCCC1 [Example 159, (R)-(1-(8-(2-Cyclopropylpyrimidin-4-yl)-9H-purin-2-yl)piperidin-3-yl)(pyrrolidin-1-yl)methanone]",28.2,
"O=C([C@@H]1CCCN(c2ccc3nc(C4(c5ccc[n+]([O-])c5)CC4)[nH]c3n2)C1)N1CCCC1 [Example 160, (R)-3-(1-(5-(3-(Pyrrolidine-1-carbonyl)piperidin-1-yl)-3H-imidazo[4,5-b]pyridin-2-yl)cyclopropyl)pyridine 1-oxide]",,789
"O=C([C@@H]1CCCN(c2ccc3nc(C4(c5ccncc5)CC4)[nH]c3n2)C1)N1CCCC1 [Example 161, (R)-(1-(2-(1-(Pyridin-4-yl)cyclopropyl)-3H-imidazo[4,5-b]pyridin-5-yl)piperidin-3-yl)(pyrrolidin-1-yl)methanone]",218,
"Cc1cc(N2CCC[C@@H](C(=O)N3CCCC3)C2)nc2[nH]c(-c3ccnc(C4CC4)n3)nc12 [Example 162, (R)-(1-(2-(2-Cyclopropylpyrimidin-4-yl)-7-methyl-3H-imidazo[4,5-b]pyridin-5-yl)piperidin-3-yl)(pyrrolidin-1-yl)methanone]",434,
"O=C([C@@H]1CCCN(c2ccc3nc(-c4cccc(-c5nnn[nH]5)c4)[nH]c3n2)C1)N1CCCC1 [Example 163, (R)-(1-(2-(3-(2H-Tetrazol-5-yl)phenyl)-3H-imidazo[4,5-b]pyridin-5-yl)piperidin-3-yl)(pyrrolidin-1-yl)methanone]",3400,
"CN(C)C(=O)[C@H]1CN(c2ccc3nc(-c4ccnc(C5CC5)n4)[nH]c3n2)CC(F)(F)C1 [Example 164, (R)-1-(2-(2-Cyclopropylpyrimidin-4-yl)-3H-imidazo[4,5-b]pyridin-5-yl)-5,5-difluoro-N,N-dimethylpiperidine-3-carboxamide]",2800,
"CN(C)C(=O)[C@@H]1CN(c2ccc3nc(-c4ccnc(C5CC5)n4)[nH]c3n2)CC(F)(F)C1 [Example 165, (S)-1-(2-(2-cyclopropylpyrimidin-4-yl)-3H-imidazo[4,5-b]pyridin-5-yl)-5,5-difluoro-N,N-dimethylpiperidine-3-carboxamide]",16500,
"O=C([C@@H]1CCCN(c2ccc3nc(C(F)(F)c4ccccc4)[nH]c3n2)C1)N1CCCC1 [Example 166, (R)-(1-(2-(Difluoro(phenyl)methyl)-3H-imidazo[4,5-b]pyridin-5-yl)piperidin-3-yl)(pyrrolidin-1-yl)methanone]",2280,
"c1cc(-c2nc3ccc(N4CCC[C@H](c5nnc6n5CCC6)C4)nc3[nH]2)nc(C2CC2)n1 [Example 168, (S)-2-(2-cyclopropylpyrimidin-4-yl)-5-(3-(6,7-dihydro-5H-pyrrolo[2,1-c][1,2,4]triazol-3-yl)piperidin-1-yl)-3H-imidazo[4,5-b]pyridine]",1390,
"c1cc(-c2nc3ccc(N4CCC[C@H](c5nnc6n5CCC6)C4)nc3[nH]2)nc(C2CC2)c1 [Example 171, (S)-2-(6-cyclopropylpyridin-2-yl)-5-(3-(6,7-dihydro-5H-pyrrolo[2,1-c][1,2,4]triazol-3-yl)piperidin-1-yl)-3H-imidazo[4,5-b]pyridine]",161,
"NC(=O)c1cccc(-c2nc3ccc(N4CCC[C@@H](C(=O)N5CCCC5)C4)nc3[nH]2)n1 [Example 172, (R)-6-(5-(3-(Pyrrolidine-1-carbonyl)piperidin-1-yl)-3H-imidazo[4,5-b]pyridin-2-yl)picolinamide]",83,
"CN(C)C(=O)c1cccc(-c2nc3ccc(N4CCC[C@@H](C(=O)N5CCCC5)C4)nc3[nH]2)n1 [Example 173, (R)—N,N-Dimethyl-6-(5-(3-(pyrrolidine-1-carbonyl)piperidin-1-yl)-3H-imidazo[4,5-b]pyridin-2-yl)picolinamide]",1250,
"O=C([C@@H]1CCCN(c2ccc3nc(-c4ccnc(C5CC5)n4)[nH]c3n2)C1)N1C[C@H]2C[C@@H]1CO2 [Example 174, (1R,4R)-2-Oxa-5-azabicyclo[2.2.1]heptan-5-yl((R)-1-(2-(2-cyclopropylpyrimidin-4-yl)-3H-imidazo[4,5-b]pyridin-5-yl)piperidin-3-yl)methanone]",1170,
"O=C([C@@H]1CCCN(c2ccc3nc(-c4ccnc(C5CC5)n4)[nH]c3n2)C1)N1CC(F)(F)C1 [Example 176, (R)-(1-(2-(2-Cyclopropylpyrimidin-4-yl)-3H-imidazo[4,5-b]pyridin-5-yl)piperidin-3-yl)(3,3-difluoroazetidin-1-yl)methanone]",73.4,
